From patent US7632816B2, “Treatment of Alzheimer amyloid deposition” (New York University, priority 2003, dated 2009)
“Also recorded” adds a separate entry of the source. Square brackets hold non-standard residues; d marks the D form. Peptide text beside a SMILES is read from it.

Assays:
[1] = target: T1, apoE3 (Homo sapiens, UniProt P02649); experiment: Thioflavin-T aggregation inhibition: apoE3-promoted Aβ1-42 fibril formation; format: biochemical; details: for relative reduction in fluorescence: apoE3 preincubated with Aβ12-28P, then added to Aβ1-42
T1 construct: made in house; host or cells: primary forebrain astrocytes of GFAP-human apoE3 transgenic mice
T1 sequence (P02649 19-317): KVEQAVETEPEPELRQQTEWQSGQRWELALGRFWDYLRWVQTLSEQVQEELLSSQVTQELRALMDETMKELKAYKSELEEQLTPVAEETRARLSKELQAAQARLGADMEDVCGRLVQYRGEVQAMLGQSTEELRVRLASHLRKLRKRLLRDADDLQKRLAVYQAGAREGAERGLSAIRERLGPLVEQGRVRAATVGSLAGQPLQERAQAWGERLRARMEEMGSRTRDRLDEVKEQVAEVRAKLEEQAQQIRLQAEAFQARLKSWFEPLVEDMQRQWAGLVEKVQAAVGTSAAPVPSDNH
Description: Recombinant apoE3 and apoE4 were purchased from Calbiochem Corp. (San Diego, Calif.). Lipidated apoE3 and apoE4 complexes were prepared from primary cultures of astrocytes derived from Tg mice in which human apoE3 or apoE4 were expressed under the control of the astrocyte-specific glial fibrillary acidic protein (GFAP) promoter as described previously (Fagan et al., “Unique Lipoproteins Secreted by Primary Astrocytes from Wild Type, ApoE (−/−), and Human ApoE Transgenic Mice,” J. Biol. Chem. 274:30001-30007 (1999); DeMattos et al., “Purification and Characterization of Astrocyte-secreted Apolipoprotein E and J-Containing Lipoproteins from Wild-type and Human ApoE Transgenic Mice,” Neurochemistry International 39:415-425 (2001); Sun et al., “Glial Fibrillary Acidic Protein-apolipoprotein E (apoE) Transgenic Mice: Astrocyte-specific Expression and Differing Biological Effects of Astrocyte-secreted ApoE3 and ApoE4 Lipoproteins,” J. Neurosci. 18:3261-3272 (1998); which are hereby incorporated by reference in their entirety). […] The purity of the apoE preparation was assessed by SDS-PAGE.
Aβ1-40 and Aβ1-42 were studied for comparison. […] Samples containing 15 μg of incubated peptides were taken at indicated intervals and fluorescence was measured as previously described in a Perkin-Elmer LS-50B fluorescence spectrophotometer (Perkin Elmer Instruments, Shelton, Conn.) (Wisniewski et al., “Acceleration of Alzheimer's Fibril Formation by Apolipoprotein E in vitro,” Am. J. Pathol. 145:1030-1035 (1994); Golabek et al., “The Interaction Between Apolipoprotein E and Alzheimer's Amyloid β-peptide is Dependent on β-peptide Conformation,” J. Biol. Chem. 271:10602-10606 (1996); which are hereby incorporated by reference in their entirety). […] Differences in amount of fibrils formed by the different peptides were evaluated by means of a repeated measures ANOVA, followed by a Tukey HSD post-hoc test using Statistica (version 6.1) (StatSoft Inc., Tulsa, Okla.). […]

[2] = target: T2, Aβ1-42 (Homo sapiens, UniProt P05067); experiment: Thioflavin-T assay: peptide alone added to Aβ1-42 (no apoE); format: biochemical; details: same concentration of Aβ12-28P
T2 construct: made in house; host or cells: chemical peptide synthesis
T2 sequence (P05067 672-713): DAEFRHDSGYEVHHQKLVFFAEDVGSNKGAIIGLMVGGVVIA

[3] = tested on: APP^K670N/M671L/PS1^M146L double Tg mice; experiment: Aβ deposition in APP/PS1 double transgenic mice, 6E10 and Thioflavin-S histology with stereology; format: in vivo; details: for Aβ load lower compared to vehicle Tg controls: 1 mg i.p. three times per week, four weeks
Description: (§1) Initial testing of Aβ12-28P toxicity in vivo was performed on five wild type C57BL6 mice which received intraperitoneal (“i.p.”) injections of 1 mg of Aβ12-28P diluted in 0.5 mL of sterile PBS three times per week for four weeks. […] Signs of toxicity included change in body weight, physical appearance, measurable clinical signs, unprovoked behavior and response to external stimuli were not noticed. After one month, the animals were sacrificed and samples were taken from the brain, liver, gut, spleen, kidney and heart, for hematoxylin and eosin staining. […] The first administration of Aβ12-28P was begun at four months of age, at which time the APP^K670N/M671L/PS1^M146L mice already have significant numbers of Aβ lesions (Wengenack et al., “Quantitative Histological Analysis of Amyloid Deposition in Alzheimer's Double Transgenic Mouse Brain,” Neurosci. 101:939-944 (2000); McGowan et al., “Amyloid Phenotype Characterization of Transgenic Mice Overexpressing Both Mutant Amyloid Precursor Protein and Mutant Presenilin 1 Transgenes,” Neurobiol. Dis. 6:231-244 (1999), which are hereby incorporated by reference in their entirety). The treatment was continued for four weeks (1 mg i.p. three times per week). Control age-matched APP^K670N/M671L/PS1^M146L mice received injections with vehicle only. There were six Aβ12-28P treated and six vehicle treated APP^K670N/M671L/PS1^M146L mice in this study.
Animals were sacrificed a week after the last injection with an overdose of sodium pentobarbital (150 mg/kg i.p.) and transcardially perfused with 20 ml of heparinized 0.1M PBS followed by 4% buffered paraformaldehyde. The brain was dehydrated using increasing concentrations of sucrose in 0.1M PBS, pH 7.4 and sectioned using a freezing microtome (Leica SM2400) (Nussloch, Germany). Serial coronal sections (40 μm thick) were collected in 10 series. Each of the series contained a complete set of cross-sections along the rostro-caudal axis of the brain spaced by 400 μm. […] For Aβ immunohistochemistry, endogenous peroxidase activity was quenched in 0.3% H2O2 for 30 min and incubation with mAb 6E10 at 1:1000 dilution was followed by an anti-mouse IgG biotinylated secondary antibody (1:2000) and avidin-horseradish peroxidase complex (Vectastain MOM kit) (Vector Laboratories, Burlingame, Calif.). Sections were developed using 3,3′-diaminobenzidine kit with nickel ammonium sulfate (Vector Laboratories, Burlingame, Calif.).
Aβ deposition were quantified on one randomly selected section series which was stained with 6E10 mAb. Aβ deposits were measured in the brain cortex and in the hippocampus using a random, unbiased sampling scheme.

[4] = In vivo toxicity test in wild type mice; details: 1 mg i.p. three times per week for four weeks
Description: as §1

In the case of `CC(=O)N[C@@H](C(=O)N[C@H](Cc1c[nH]cn1)C(=O)N[C@H](Cc1c[nH]cn1)C(=O)N[C@H](CCC(N)=O)C(=O)N[C@H](CCCCN)C(=O)N[C@H](CC(C)C)C(=O)N1CCC[C@@H]1C(=O)N[C@H](Cc1ccccc1)C(=O)N[C@H](Cc1ccccc1)C(=O)N[C@H](C)C(=O)N[C@H](CCC(=O)O)C(=O)N[C@H](CC(=O)O)C(=O)N[C@@H](C(=O)NCC(=O)N[C@H](CO)C(=O)N[C@H](CC(N)=O)C(=O)N[C@H](CCCCN)C(N)=O)C(C)C)C(C)C` [Aβ12-28P] (Ac-[dV][dH][dH][dQ][dK][dL][dP][dF][dF][dA][dE][dD][dV]G[dS][dN][dK]-NH2), the “relative reduction in fluorescence” value ([1]; after 24 h of incubation) is reported as 14.5%, the “relative reduction in fluorescence” value ([1]; day six) is reported as 48.3% and the “chaperoning effect of apoE3 on Aβ1-42 fibril formation” value ([1]; apoE3 preincubated with equimolar Aβ12-28P, p<0.05) is reported as “significantly reduced”. For the same molecule, the “effect of peptide alone on Aβ1-42 fibrillogenesis” value [2] was “did not have any significant effect”, the “reduction in the number of medium-size plaques” value ([3]; cortex, >500 μm^2 and <1000 μm^2, p<0.05) was 53.5% and the “reduction in the number of large plaques” value ([3]; cortex, >1000 μm^2, non-significant) was 44%. For the same molecule, the “reduction in the density of small plaques” value ([3]; cortex, cross-section area <500 μm^2, p<0.001) was 52.8%, the “Aβ load lower compared to vehicle Tg controls” value ([3]; cortex, p=0.0047) was 63.3% and the “density of fibrillar Aβ plaques on Thioflavin-S staining” value ([3]; four weeks of treatment) was “reduction in the density of Aβ plaques was also seen”. For the same molecule, the “reduction in the density of large plaques” value ([3]; hippocampus, p<0.05) was 65.4%, the “reduction in the density of medium-size plaques” value ([3]; hippocampus, p<0.05) was 48.6% and the “reduction in the density of small plaques” value ([3]; hippocampus, p<0.05) was 37.6%. For the same molecule, the “Aβ load lower compared to vehicle Tg controls” value ([3]; hippocampus, p=0.0048) was 61.9%, the “reduction in the numerical density of Aβ plaques” value ([3]; hippocampus, p=0.0047) was 46.3% and the “reduction in the numerical density of Aβ plaques” value ([3]; neocortex, p=0.0002) was 60.1%. The “reduction in Aβ load and plaque density versus control Tg animals, in words” value ([3]; one month of administration) was “over two fold; also recorded: significant reduction”, the survival and condition ([4]; observed two more weeks, wild type C57BL6 mice) was “all remained alive and well” and the “hematoxylin and eosin histology of brain, heart, liver, gut, spleen, kidneys” value ([4]; wild type mice) was “did not reveal any pathology”. For the same molecule, the “signs of toxicity (body weight, physical appearance, clinical signs, unprovoked behavior, response to external stimuli)” value ([4]; wild type mice) was “No changes were noted; also recorded: not noticed”.
